Reference: patent publication US10294234B2, “HIV inhibitor compounds” (priority 2017, dated 2019)
Read-outs that look alike come from different tables or passages of the source.

What was measured:
[1] = system: HIV-1 (IIIB) in MT-4 cells; assay: MT-4 HIV assay; assay type: cell-based; details: HIV-1 (IIIB), MT-4 cells, 5 days, Cell Titer Glo, read-out: EC50
Procedure, shortened: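 MT-4 cells infected with HIV-1 IIIB (1:250 stock dilution) were incubated with 1:3 serially diluted compounds in RPMI with 10% FBS for 5 days at 37 °C. Cell Titer Glo luminescence was the readout. Plates included mock-infected wells, no-drug wells and 5 uM AZT controls.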

[2] = Procedure, shortened: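 Dog, rat and human liver microsomes (0.5 mg/mL) with NADPH-regenerating cofactor; test compound 1 uM, duplicates. Timepoints 2, 12, 25, 45, 65 min; protein removed by centrifugation, supernatant analysed by LC/MS/MS. Clint from t1/2.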
[3] = in vivo; details: rat, in vivo; for Vd / RAT PO F: male, SD; for Vd / RAT IV CL / RAT IV T1/2: iv; for RAT PO F: 2.5 mg/kg
Experimental: Each dosing group consisted of 3 male naïve SD Rats. At dosing, the animals weighed between 0.27 to 0.32 kg. The animals were fasted overnight prior to dose administration. The test article was administered by intravenous infusion over 30 min. The rate of infusion was adjusted according to the body weight of each animal to deliver a dose of 0.5 or 1.0 mg/kg. For the oral dosing group, the test article was administered to animals by oral gavage administration. Serial venous blood samples (approximately 0.30 mL each) were taken at predose and 0.25, 0.48, 0.58, 0.75, 1.5, 3, 6, 8, 12 and 24 hours post dose for the IV dosing group animals. Blood samples were taken at predose, 0.25, 0.50, 1, 2, 4, 6, 8, 12 and 24 hours post dose for the oral group animals. The blood samples were collected into Vacutainer™ tubes containing EDTA-K2 as the anti-coagulant and were immediately placed on wet ice pending centrifugation for plasma. An LC/MS/MS method was used to measure the concentration of test compound in plasma. Non-compartmental pharmacokinetic analysis was performed on the plasma concentration-time data.

[4] = Human immunodeficiency virus 1, MT4, 120 h
[5] = human liver microsomes 0.5 mg/mL, 1 uM compound, NADPH

| Molecule | EC50 [1, 4] | Dog. Pred. Cl. ([2]; microsomes) | Human Pred Cl. ([2]; human, microsomes) | Rat. Pred. Cl. ([2]; rat, microsomes) | Vd [3] | RAT PO F [3] | RAT IV CL [3] | RAT IV T1/2 [3] | EC50 [1] | Human Pred Cl. [2, 5] | Rat. Pred. Cl. ([2]; rat liver microsomes 0.5 mg/mL, 1 uM compound, NADPH) |
| --- | --- | --- | --- | --- | --- | --- | --- | --- | --- | --- | --- |
| COC(=O)N[C@H](C(=O)N[C@@H](Cc1ccc(C#Cc2ccc(N3CC4CCC(C3)N4C3COC3)nc2)cc1)[C@@H](O)CN(Cc1ccc(-c2ccccn2)cc1)NC(=O)[C@@H](NC(=O)OC)C(C)(C)C(F)(F)F)C(C)(C)C(F)(F)F [Example 56, Methyl ((5S,8S,9S,14S)-16,16,16-trifluoro-9-hydroxy-15,15-dimethyl-8-(4-((6-(8-(oxetan-3-yl)-3,8-diazabicyclo[3.2.1]octan-3-yl)pyridin-3-yl)ethynyl)benzyl)-3,6,13-trioxo-11-(4-(pyridin-2-yl)benzyl)-5-(1,1,1-trifluoro-2-methylpropan-2-yl)-2-oxa-4,7,11,12-tetraazahexadecan-14-yl)carbamate] | 3.59 nM | 1.47 L/H/kg | 0.17 L/H/kg | 0.19 L/H/kg | 7.44 L/kg | 34.1% | 14.2 mL/min/kg | 8.77 h |  |  |  |
| COC(=O)N[C@H](C(=O)N[C@@H](Cc1ccc(C#Cc2ccc(N3CC4CCC(C3)N4C3COC3)nc2)cc1)[C@@H](O)CN(Cc1c(F)cc(-c2cc3n(n2)CCOC3)cc1F)NC(=O)[C@@H](NC(=O)OC)C(C)(C)C(F)(F)F)C(C)(C)C(F)(F)F [Example 57, Methyl ((5S,8S,9S,14S)-11-(4-(6,7-dihydro-4H-pyrazolo[5,1-c][1,4]oxazin-2-yl)-2,6-difluorobenzyl)-16,16,16-trifluoro-9-hydroxy-15,15-dimethyl-8-(4-((6-(8-(oxetan-3-yl)-3,8-diazabicyclo[3.2.1]octan-3-yl)pyridin-3-yl)ethynyl)benzyl)-3,6,13-trioxo-5-(1,1,1-trifluoro-2-methylpropan-2-yl)-2-oxa-4,7,11,12-tetraazahexadecan-14-yl)carbamate] | 2.91 nM |  | <0.11 L/H/kg | <0.18 L/H/kg | 2.45 L/kg | 23.2% | 6 mL/min/kg | 6.28 h |  |  |  |
| COC(=O)N[C@H](C(=O)N[C@@H](Cc1ccc(C#Cc2cnc(N3CC4CCC(C3)N4C3COC3)nc2)cc1)[C@@H](O)CN(Cc1c(F)cc(-c2cnn(C(F)F)c2)cc1F)NC(=O)[C@@H](NC(=O)OC)C(C)(C)C(F)(F)F)C(C)(C)C(F)(F)F [Example 61, Methyl ((5S,8S,9S,14S)-11-(4-(1-(difluoromethyl)-1H-pyrazol-4-yl)-2,6-difluorobenzyl)-16,16,16-trifluoro-9-hydroxy-15,15-dimethyl-8-(4-((2-(8-(oxetan-3-yl)-3,8-diazabicyclo[3.2.1]octan-3-yl)pyrimidin-5-yl)ethynyl)benzyl)-3,6,13-trioxo-5-(1,1,1-trifluoro-2-methylpropan-2-yl)-2-oxa-4,7,11,12-tetraazahexadecan-14-yl)carbamate] | 4.11 nM |  | <0.11 L/H/kg | <0.18 L/H/kg | 6.5 L/kg | 18.5% | 7.17 mL/min/kg | 12.9 h |  |  |  |
| COC(=O)N[C@H](C(=O)N[C@@H](Cc1ccc(C#Cc2ccc(N3CC4CCC(C3)N4C3COC3)nc2)cc1)[C@@H](O)CN(Cc1c(F)cc(-c2cnn(C(F)F)c2)cc1F)NC(=O)[C@@H](NC(=O)OC)C(C)(C)C(F)(F)F)C(C)(C)C(F)(F)F [Example 71, Methyl ((5S,8S,9S,14S)-11-(4-(1-(difluoromethyl)-1H-pyrazol-4-yl)-2,6-difluorobenzyl)-16,16,16-trifluoro-9-hydroxy-15,15-dimethyl-8-(4-((6-(8-(oxetan-3-yl)-3,8-diazabicyclo[3.2.1]octan-3-yl)pyridin-3-yl)ethynyl)benzyl)-3,6,13-trioxo-5-(1,1,1-trifluoro-2-methylpropan-2-yl)-2-oxa-4,7,11,12-tetraazahexadecan-14-yl)carbamate] | 3.37 nM | 0.47 L/H/kg | <0.11 L/H/kg | <0.18 L/H/kg | 7.26 L/kg | 24.6% | 15 mL/min/kg | 9.27 h |  |  |  |
| CC(C)([C@H](NC(=O)OC1COC1)C(=O)N[C@@H](Cc1ccc(C#Cc2cnc(N3CC4CCC(C3)N4C3COC3)nc2)cc1)[C@@H](O)CN(Cc1c(F)cc(-c2ccn(C(F)F)n2)cc1F)NC(=O)[C@@H](NC(=O)OC1COC1)C(C)(C)C(F)(F)F)C(F)(F)F [Example 220, Oxetan-3-yl ((2S)-1-(2-(4-(1-(difluoromethyl)-1H-pyrazol-3-yl)-2,6-difluorobenzyl)-2-((2S,3S)-2-hydroxy-4-(4-((2-(8-(oxetan-3-yl)-3,8-diazabicyclo [3.2.1]octan-3-yl)pyrimidin-5-yl)ethynyl)phenyl)-3-((S)-4,4,4-trifluoro-3,3-dimethyl-2-(((oxetan-3-yloxy)carbonyl)amino)butanamido)butyl)hydrazinyl)-4,4,4-trifluoro-3,3-dimethyl-1-oxobutan-2-yl)carbamate] | 7.66 nM | 0.46 L/H/kg | <0.11 L/H/kg | 0.34 L/H/kg |  |  |  |  |  |  |  |
| COC(=O)N[C@H](C(=O)N[C@@H](Cc1ccc(C#Cc2ccc(N3CC4CCC(C3)N4C3COC3)nc2)cc1)[C@@H](O)CN(Cc1c(F)cc(-c2ccc(C)cn2)cc1F)NC(=O)[C@@H](NC(=O)OC)C(C)(C)C(F)(F)F)C(C)(C)C(F)(F)F [Example 229, Methyl ((5S,8S,9S,14S)-11-(2,6-difluoro-4-(5-methylpyridin-2-yl)benzyl)-16,16,16-trifluoro-9-hydroxy-15,15-dimethyl-8-(4-((6-(8-(oxetan-3-yl)-3,8-diazabicyclo [3.2.1]octan-3-yl)pyridin-3-yl)ethynyl)benzyl)-3,6,13-trioxo-5-(1,1,1-trifluoro-2-methylpropan-2-yl)-2-oxa-4,7,11,12-tetraazahexadecan-14-yl)carbamate] | 7.86 nM |  | <0.11 L/H/kg | 0.26 L/H/kg |  |  |  |  |  |  |  |
| COC(=O)N[C@H](C(=O)N[C@@H](Cc1ccc(C#Cc2ccc(N3CC4CCC(C3)N4C3COC3)nc2)cc1)[C@@H](O)CN(Cc1c(F)cc(-c2cnn(C(F)F)c2)cc1F)NC(=O)[C@@H](NC(=O)OC)C(C)(C)CF)C(C)(C)CF [Example 233, methyl ((5S,8S,9S,14S)-11-(4-(1-(difluoromethyl)-1H-pyrazol-4-yl)-2,6-difluorobenzyl)-16-fluoro-5-(1-fluoro-2-methylpropan-2-yl)-9-hydroxy-15,15-dimethyl-8-(4-((6-(8-(oxetan-3-yl)-3,8-diazabicyclo[3.2.1]octan-3-yl)pyridin-3-yl)ethynyl)benzyl)-3,6,13-trioxo-2-oxa-4,7,11,12-tetraazahexadecan-14-yl)carbamate] | 2.71 nM |  | <0.11 L/H/kg | <0.18 L/H/kg |  |  |  |  |  |  |  |
| Methyl ((5S,8S,9S,14S)-8-(4-((6-(3,8-diaza bicyclo[3.2.1]octan-3-yl)pyridin-3-yl)ethynyl)benzyl)-1-(4-(1-(difluoromethyl)-1H-pyrazol-3-yl)-2,6-difluorobenzyl)-16,16,16-trifluoro-9-hydroxy-15,15-dimethyl-3,6,13-trioxo-5-(1,1,1-trifluoro-2-methylpropan-2-yl)-2-oxa-4,7,11,12-tetraazahexadecan-14-yl)carbamate 2,2,2-trifluoroacetate [Example 161] |  |  |  |  |  |  |  |  | 14 nM | <0.11 L/H/kg |  |
| Methyl ((5S,8S,9S,14S)-11-(2,6-difluoro-4-(1-methyl-1H-pyrazol-3-yl)benzyl)-16,16,16-trifluoro-9-hydroxy-15,15-dimethyl-8-(4-((6-(8-(oxetan-3-yl)-3,8-diazabicyclo[3.2.1]octan-3-yl)pyridin-3-yl)ethynyl)benzyl-3,6,13-trioxo-5-(1,1,1-trifluoro-2-methylpropan-2-yl)-2-oxa-4,7,11,12-tetraazahexadecan-14-yl)carbamate [Example 128] |  |  |  |  |  |  |  |  | 3.16 nM | 0.15 L/H/kg | 0.37 L/H/kg |
| Methyl ((5S,8S,9S,14S)-11-(4-(1-(difluoromethyl)-1H-pyrazol-4-yl)-2,6-difluorobenzyl)-16,16,16-trifluoro-9-hydroxy-15,15-dimethyl-8-(4-((6-(4-(oxetan-3-yl)piperazin-1-yl)pyridin-3-yl)ethynyl)benzyl)-3,6,13-trioxo-5-(1,1-trifluoro-2-methylpropan-2-yl)-2-oxa-4,7,11,12-tetraazahexadecan-14-yl)carbamate [Example 116] |  |  | 0.19 L/H/kg | 0.39 L/H/kg |  |  |  |  | 2.79 nM |  |  |
